The test system of the experiment is DRG nociceptors. The experiment is described as follows: Whole cell patch-clamp recordings of acutely dissociated DRG nociceptors. The class given is cell-based, mouse. The method, then: F. Acutely dissociated dorsal root ganglion (DRG) Preparation. Male or female mice between 1 and 2 months of age were used for acute DRG isolations. […] Dissociated DRG cultures were prepared as previously described (Perner C et al. “Protocol for dissection and culture of murine dorsal root ganglia neurons to study neuropeptide release.” STAR Protoc (2021) 2:100333). Briefly, DRGs were dissected from 1- to 2-month-old mice in Hank's buffered salt solution (HBSS) and digested with Collagenase A and Dispase II for 25 min at 37° C., centrifuged at 200×g for 5 min, and washed with Dulbecco's modified Eagle's medium (DMEM) supplemented with 10% fetal bovine serum (FBS), glutamate, sodium pyruvate, 1% penicillin and 1% streptomycin. DRGs were then triturated in Neurobasal A medium supplemented with 10% FBS, 1% penicillin, 1% streptomycin, 1% GlutaMAX, 2% B27, […] nerve growth factor (NGF) and […] glial cell line-derived neurotrophic factor (GDNF). After plating on laminin-coated coverslips, cells were incubated at 37° C. overnight. Experiments were performed the day after dissection.
G. Whole cell patch-clamp recordings. Nociceptors were identified by physiological classification protocols (Petruska J C et al. “Subclassified acutely dissociated cells of rat DRG: histochemistry and patterns of capsaicin-, proton-, and ATP-activated currents.” J Neurophysiol (2000) 84:2365-2379) summarized in FIG. 10 and further by responsivity to morphine. Each experimental group consisted of 12-18 DRG recordings from three animals, 1-2 of which were female. Hyperpolarization-activated current (Ih) and kinetics of resulting transient currents were determined by stepping membrane potential from −60 to −110 mV for 500 ms in 10 mV increments (FIG. 10A). Outward currents were identified by first preconditioning membrane potential at −100 mV for 500 ms and then stepping from −60 to 40 mV in 20 mV increments for 200 ms (FIG. 10D). Inward current dynamics were determined by preconditioning at −80 mV and then stepping from −60 to 40 mV in 10 mV increments (FIG. 10G). A 6-s, 0- to 2-nA continuous ramp stimulation protocol was used to determine rheobase. Membrane capacitance (Cm), series resistance (Rs) and input resistance (Ri) were tested with a hyperpolarizing 10 mV pulse of 10 ms duration initially and at a 30 s interval throughout the recording period. Cells were recorded only if initial series resistance was ≤20 MΩ and excluded if Rs varied >20% while recording. Offline analysis identified clustering of a population n=30 with uniform morphine responsivity that was selected for further analysis, with basal parameters #SEM: Cm=27.31±4.72 pF, Ri=492±19.29 MQ, Ih=7.10±2.45 pA·pF−1, IA tau=8.39±0.41 ms and action potential (AP) tau=1.22±0.08 ms. K+ internal was used for all recordings, containing: 6 mM NaCl, 4 mM NaOH, 130 mM K-gluconate, 11 mM ethylene glycol-bis(β-aminoethyl ether)tetraacetic acid (EGTA), 1 mM CaCl2, 1 mM MgCl2, 10 mM N-(2-hydroxyethyl)piperazine-N′-(2-ethanesulphonic acid) (HEPES), 2 mM Na2ATP, and 0.2 mM Na2GTP 0.2, adjusted to pH 7.3-7.4 with HCl. External artificial CSF contained: 125 mM NaCl, 3 mM KCl, 1.2 mM KH2PO4, 1.2 mM MgSO4, 25 mM NaHCO3, 2 mM CaCl2), and 10 mM dextrose 10, adjusted to pH 7.3-7.4 with HCl.

The mark [1] stands for this setting: co-application 100 nM YM + 1 μM morphine.

Molecules are shown by their SMILES. Positions of bridges follow the written chain, without caps; N, C: chain ends. Non-standard residues stand in square brackets, D forms with d. Residues, ends and D or L forms follow the SMILES beside them. Leu(3R-O(AcLeu(3R-OH))) = CC(=O)N[C@H](C(=O)O[C@H](C(C)C)[C@H](N)C(=O)O)[C@H](O)C(C)C; NMeT = CN[C@H](C(=O)O)[C@@H](C)O; dPhLac = O=C(O)[C@H](O)Cc1ccccc1; NMeA = CN[C@@H](C)C(=O)O; NMeDha = C=C(NC)C(=O)O

Experimental findings from US20250177478A1, “G ALPHA Q/11 INHIBITORS FOR USE AS AN ANALGESIC” (University of Florida Research Foundation, Incorporated, priority 2022, published 2025) are described below.

Take `C=C1C(=O)N[C@@H](C)C(=O)N(C)[C@@H](C)C(=O)N[C@@H]([C@H](OC(=O)[C@@H](NC(C)=O)[C@H](O)C(C)C)C(C)C)C(=O)N(C)[C@@H]([C@@H](C)OC)C(=O)O[C@H](C)[C@H](NC(C)=O)C(=O)O[C@H](Cc2ccccc2)C(=O)N1C` [YM-254890] (Ac-T[dPhLac][NMeDha]A[NMeA][Leu(3R-O(AcLeu(3R-OH)))][NMeT](Me); ester 1-C): the “inhibition of substance P induced excitation of DRG nociceptors” value (10 nM substance P followed by 10 nM SP and 100 nM YM) is given as “inhibit the effects of substance P”. Moreover, under “100 nM YM versus 1 μM morphine”, the “magnitude of decrease in excitability relative to morphine” value is on record as “smaller as compared with morphine”. In addition, the “rapidly inactivating A-type potassium currents (IA), voltage-step protocol 2” value was “significantly inhibited IA” (YM-254890 or morphine alone); “nearly eliminated IA” (coadministration of YM-254890 and morphine). In addition, for the setting “bath application alone: 100 nM YM or 1 μM morphine”, the “AP amplitude, voltage-step protocol” value was “moderately reduced AP amplitude”. Also, the “excitability of DRG nociceptors (rheobase, 0-2 nA ramp stimulation)” value (bath application alone: 1 μM morphine or 100 nM YM) is listed as “significant decrease in the excitability”. Moreover, the “action potential firing in 0-2 nA ramp protocol” value under setting [1] is listed as “prevented action potential firing throughout the 2-nA ramp protocol in all recordings”. Also, the “evoked AP responses, voltage-step protocol” value was “largely prevented evoked AP responses” under setting [1] and “greatly inhibited evoked depolarization” (co-application 100 nM YM + 1 μM morphine, listed as YM).
